Laboratory results as given in US9492482B2, “Engineered cells expressing multiple immunomodulators and uses thereof” (Intrexon Corporation, priority 2008, dated 2016).

Test system: DC.RheoIL12
Experiment: IL-12 secretion from DC.RheoIL12 with or without activating ligand
Assay type: cell-based
Settings: in the presence of the activating ligand RG-115830 but not in the absence of the ligand
Method: In one embodiment, the invention provides an engineered population of immune cells and TSC. In one embodiment, day 7 cultured DC are treated with recombinant adenovirus encoding an immunomodulator and/or IL-12 driven off a constitutive or inducible promoter, or are infected with mock, control adenovirus vector (rAdψ5), over a range of multiplicity of infection (MOIs). After 48 h, infected DC are harvested and analyzed for phenotype and for production of an immunomodulator and/or IL-12 using a specific ELISA kit (BD-PharMingen, San Diego, Calif.), with a lower level of detection of 62.5 pg/ml.

**Q.** With `CCCC(N(NC(=O)c1cccc(OC)c1CC)C(=O)c1cc(C)cc(C)c1)C(C)(C)C` (stereo not shown) [RG-115830, 3,5-Dimethyl-benzoic acid N-(1-tert-butyl-butyl)-N′-(2-ethyl-3-methoxy-benzoyl)-hydrazide] as the molecule, how does the “IL-12 secreted from DC.RheoIL12” value read?
**A.** elevated levels of IL-12 are secreted
